Literature values as cited in US20200309767A1, “HIGH-THROUGHPUT IMAGING-BASED METHODS FOR PREDICTING CELL-TYPE-SPECIFIC TOXICITY OF XENOBIOTICS WITH DIVERSE CHEMICAL STRUCTURES” (priority 2015, published 2020).
Structures can show the parent of a compound that is named as a salt. Where two headings read alike, the source gives them in different places.

Columns and labels:
lung = settings: cited from earlier work
[1] = system: human proximal tubular cells (PTCs); settings: cited from earlier work
human kidney = settings: cited from earlier work
liver = settings: in vivo; cited from earlier work
[2] = known in vivo group, Toxic / Non-toxic
[3] = known human kidney toxicity flag 1/0

Molecule	PTC Toxicity ([1]; human, in vivo)	PTC-toxic ([1]; human, in vivo)	Nephrotoxic (human kidney; in vivo)	Hepatotoxic (liver)	Pulmonotoxic (lung; human, in vivo)	further results
CC(O)CCC(=O)c1ccoc1 (centres unmarked) [4-Ipomeanol]						Pulmonotoxic (lung; known toxicity flag 1/0): 0
C[C@H]1O[C@H](O[C@H]2[C@H](O)[C@@H](O)[C@@H](O[C@H]3[C@H](O)[C@@H](O)C(O)O[C@@H]3CO)O[C@@H]2CO)[C@H](O)[C@@H](O)[C@@H]1N[C@H]1C=C(CO)[C@@H](O)[C@H](O)[C@H]1O (some centres unmarked) [Acarbose]	Non-toxic					PTC-toxic ([1]; known toxicity flag 1/0): 0
CC(=O)Nc1ccc(O)cc1 [Acetaminophen]	Non-toxic	0	1	1		
CCCCc1oc2ccccc2c1C(=O)c1cc(I)c(OCCN(CC)CC)c(I)c1.Cl [Amidoarone hydrochloride]						Pulmonotoxic (lung; known toxicity flag 1/0): 1
COc1cccc2c1cc([N+](=O)[O-])c1c(C(=O)O)cc3c(c12)OCO3 [Aristolochic acid]				1		PTC Toxicity [1, 2]: Toxic; PTC-toxic ([1]; known toxicity flag 1/0): 1; Nephrotoxic (human kidney; [3]): 1
O=[As]O[As]=O (centres unmarked) [Arsenic(III) oxide]				1		PTC Toxicity [1, 2]: Toxic; PTC-toxic ([1]; known toxicity flag 1/0): 1; Nephrotoxic (human kidney; [3]): 1
CC(O)(CS(=O)(=O)c1ccc(F)cc1)C(=O)Nc1ccc(C#N)c(C(F)(F)F)c1 (centres unmarked) [Bicalutamide]					0	
[Bi+3].[Bi+3].[O-2].[O-2].[O-2] [Bismuth(III) oxide]				1		PTC Toxicity [1, 2]: Toxic; PTC-toxic ([1]; known toxicity flag 1/0): 1; Nephrotoxic (human kidney; [3]): 1
Cc1cc(C(C)(C)C)c(O)c(C(C)(C)C)c1 [Butylated hydroxytoluene]					0	
[Cd+2].[Cl-].[Cl-] [Cadmium(II) chloride]				1		PTC Toxicity [1, 2]: Toxic; PTC-toxic ([1]; known toxicity flag 1/0): 1; Nephrotoxic (human kidney; [3]): 1; Pulmonotoxic (lung; known toxicity flag 1/0): 1
NC(=O)N1c2ccccc2C=Cc2ccccc21 [Carbamazepine]					1	
O=C(Cc1cccs1)N[C@@H]1C(=O)N2C(C(=O)[O-])=C(C[n+]3ccccc3)CS[C@H]12 [Cephaloridine]	Toxic	1	1	0		
CC(=O)OCC1=C(C(=O)O)N2C(=O)[C@@H](NC(=O)CCC[C@@H](N)C(=O)O)[C@H]2SC1 [Cephalosporin C]	Toxic	1	1	0		
CC(=O)OCC1=C(C(=O)O)N2C(=O)[C@@H](NC(=O)Cc3cccs3)[C@H]2SC1 [Cephalothin]	Toxic	1	1	0		
CC1=C2C(=CO[C@H](C)[C@H]2C)C(O)=C(C(=O)O)C1=O [Citrinin]	Toxic	1	1	0		
[Cl][Cu][Cl] [Copper(II) chloride]				1		PTC Toxicity [1, 2]: Toxic; PTC-toxic ([1]; known toxicity flag 1/0): 1; Nephrotoxic (human kidney; [3]): 1
O=P1(N(CCCl)CCCl)NCCCO1 (centres unmarked) [Cyclophosphamide]						Pulmonotoxic (lung; known toxicity flag 1/0): 1
OC[C@@H](O)[C@@H](O)[C@H](O)[C@@H](O)CO [D-sorbitol]					0	
C[C@@H]1C[C@H]2[C@@H]3CCC4=CC(=O)C=C[C@]4(C)[C@@]3(F)[C@@H](O)C[C@]2(C)[C@@]1(O)C(=O)CO [Dexamethasone]	Non-toxic	0	0	0		

Molecule	PTC Toxicity ([1]; human, in vivo)	PTC-toxic ([1]; human, in vivo)	Nephrotoxic (human kidney; in vivo)	Hepatotoxic (liver)	Pulmonotoxic (lung; human, in vivo)	further results
CC(=O)C(C)=O [Diacetyl]					1	
OCCO [Ethylene glycol]	Non-toxic	0	1	0	0	
[Ge+4].[O-2].[O-2] [Germanium(IV) oxide]				0		PTC Toxicity [1, 2]: Toxic; PTC-toxic ([1]; known toxicity flag 1/0): 1; Nephrotoxic (human kidney; [3]): 1
NCC(=O)O [Glycine]	Non-toxic	0	0	0		
[Cl][Au] [Gold(I) chloride]	Toxic	1	1	1		
C[C@]12CCC(=O)C=C1CC[C@@H]1[C@@H]2[C@@H](O)C[C@@]2(C)[C@H]1CC[C@]2(O)C(=O)CO [Hydrocortisone]	Non-toxic	0		0		
CC(C)Cc1ccc(C(C)C(=O)O)cc1 (centres unmarked) [Ibuprofen]	Non-toxic	0		1		
CC(=O)N1CCN(c2ccc(OCC3COC(Cn4ccnc4)(c4ccc(Cl)cc4Cl)O3)cc2)CC1 (centres unmarked) [Ketoconazole]					0	
N[C@@H](Cc1ccc(O)c(O)c1)C(=O)O [Levodopa]	Non-toxic					
CCC[C@@H]1C[C@@H](C(=O)N[C@@H]([C@H]2O[C@H](SC)[C@H](O)[C@@H](O)[C@H]2O)[C@@H](C)O)N(C)C1 [Lincomycin hydrochloride]					0	
Cl[C@H]1[C@H](Cl)[C@@H](Cl)[C@@H](Cl)[C@H](Cl)[C@H]1Cl [Lindane]	Non-toxic	0	1	0		
COc1ccc2[nH]cc(CCNC(C)=O)c2c1 [Melatonin]	Non-toxic					
CN(C)C(=N)N=C(N)N [Metformin hydrochloride]			1	0		
CN(Cc1cnc2nc(N)nc(N)c2n1)c1ccc(C(=O)N[C@@H](CCC(=O)O)C(=O)O)cc1 [Methotrexate]					1	
C[C@H]1C(=O)O[C@@H]2CCN3CC=C(COC(=O)[C@](C)(O)[C@]1(C)O)[C@H]23 [Monocrotaline]					0	
CN(CCCC(=O)c1cccnc1)N=O [NNK]						Pulmonotoxic (lung; known toxicity flag 1/0): 1
O=C1CC[C@@]2(O)[C@H]3Cc4ccc(O)c5c4[C@@]2(CCN3CC2CC2)[C@H]1O5 [Naltrexone hydrochloride]					0	
Cc1ccnc2c1NC(=O)c1cccnc1N2C1CC1 [Nevirapine]					0	
O=C1CN(/N=C/c2ccc([N+](=O)[O-])o2)C(=O)N1 [Nitrofurantoin]					1	

Molecule	PTC Toxicity ([1]; human, in vivo)	PTC-toxic ([1]; human, in vivo)	Nephrotoxic (human kidney; in vivo)	Hepatotoxic (liver)	Pulmonotoxic (lung; human, in vivo)	further results
C[C@@H]1[C@H](O)[C@@H](C)/C=C/C=C/CC/C=C/C=C/C=C/C=C/C(O[C@H]2O[C@H](C)[C@@H](O)[C@H](N)[C@@H]2O)CC2O[C@](O)(CC(O)C(O)CCC(O)CC(O)CC(O)CC(=O)O[C@H]1C)CC(O)C2C(=O)O (some centres unmarked) [Nystatin]					0	
CCOc1ccc(NC(C)=O)cc1 [Phenacetin]	Non-toxic					
[K+].[K+].[O]=[Cr](=[O])([O-])[O][Cr](=[O])(=[O])[O-] [Potassium dichromate]	Toxic	1	1	1		
COc1ccc(C[C@H](N)C(=O)N[C@H]2[C@@H](O)[C@H](n3cnc4c(N(C)C)ncnc43)O[C@@H]2CO)cc1 [Puromycin]	Toxic	1	1	1		
CO[C@H]1/C=C/O[C@@]2(C)Oc3c(C)c(O)c4c(O)c(c(/C=N/N5CCN(C)CC5)c(O)c4c3C2=O)NC(=O)/C(C)=C\C=C\[C@H](C)[C@H](O)[C@@H](C)[C@@H](O)[C@@H](C)[C@H](OC(C)=O)[C@@H]1C [Rifampicin]	Toxic	1	1	1		
[Cl-].[Na+] [Sodium chloride]					0	
C=CC[C@@H]1/C=C(\C)C[C@H](C)C[C@H](OC)[C@H]2O[C@@](O)(C(=O)C(=O)N3CCCC[C@H]3C(=O)O[C@H](/C(C)=C/[C@@H]3CC[C@@H](O)[C@H](OC)C3)[C@H](C)[C@@H](O)CC1=O)[C@H](C)C[C@@H]2OC [Tacrolimus]	Toxic	1	1	0		
CN(C)[C@@H]1C(O)=C(C(N)=O)C(=O)[C@@]2(O)C(O)=C3C(=O)c4c(O)cccc4[C@@](C)(O)[C@H]3C[C@@H]12 [Tetracycline]	Toxic	1	1	1		
CN1COCN(Cc2cnc(Cl)s2)/C1=N\[N+](=O)[O-] [Thiamethoxam]					0	
OCCOCCOCCO [Triethylene glycol]					0	
N[C@@H](Cc1cc(I)c(Oc2ccc(O)c(I)c2)c(I)c1)C(=O)O [Triiodothyronine]	Non-toxic					
CC(C)[C@H](N)C(=O)OCCOCn1cnc2c(=O)[nH]c(N)nc21 [Valacyclovir]	Non-toxic	0	1	1		
CN[C@H](CC(C)C)C(=O)N[C@H]1C(=O)N[C@@H](CC(N)=O)C(=O)N[C@H]2C(=O)N[C@H]3C(=O)N[C@H](C(=O)N[C@H](C(=O)O)c4cc(O)cc(O)c4-c4cc3ccc4O)[C@H](O)c3ccc(c(Cl)c3)Oc3cc2cc(c3O[C@@H]2O[C@H](CO)[C@@H](O)[C@H](O)[C@H]2O[C@H]2C[C@](C)(N)[C@H](O)[C@H](C)O2)Oc2ccc(cc2Cl)[C@H]1O [Vancomycin hydrochloride]					0	
CN[C@H](CC(C)C)C(=O)N[C@H]1C(=O)N[C@@H](CC(N)=O)C(=O)N[C@H]2C(=O)N[C@H]3C(=O)N[C@H](C(=O)N[C@H](C(=O)O)c4cc(O)cc(O)c4-c4cc3ccc4O)[C@H](O)c3ccc(c(Cl)c3)Oc3cc2cc(c3O[C@@H]2O[C@H](CO)[C@@H](O)[C@H](O)[C@H]2O[C@H]2C[C@](C)(N)[C@H](O)[C@H](C)O2)Oc2ccc(cc2Cl)[C@H]1O [Vancomycin]	Non-toxic	0	1	1		
C=C(Cl)Cl [Vinylidene chloride]					0	
Nc1ccc(N)cc1 [p-Phenylenediamine]					1	
C=CC(=C)CCC=C(C)C [β-Myrcene]					0	
Bleomycin sulfate					1	
Hydroxypropyl-β-cyclodextrin					0	
